Results reported in ChEMBL document CHEMBL1201862, “PubChem BioAssay data set” (2004).
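Test compounds were applied to cells in 96-well plates for 48 hours at 5 doses. Abbreviation: GI50, concentration required for 50% inhibition of growth.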 Calls of active or inactive are those of the source. No stated cut-off is given here; in the data, active = GI50 up to about 1.1 µM and inactive = higher.

Columns and labels:
Experiment in all cases: inhibition of tumour cell growth, NCI panel, 48 h
SK-MEL-28 = system: SK-MEL-28
MOLT-4 = system: MOLT-4
HL-60 = system: HL-60
A549 = system: A549
SF-295 = system: SF-295
DU-145 = system: DU-145
Malme-3M = system: Malme-3M
HCT-116 = system: HCT-116
UACC-62 = system: UACC-62
MCF7 = system: MCF7
786-0 = system: 786-0
SK-MEL-2 = system: SK-MEL-2
IGROV-1 = system: IGROV-1
SNB-19 = system: SNB-19
Hs-578T = system: Hs-578T
M14 = system: M14
SK-MEL-5 = system: SK-MEL-5
EKVX = system: EKVX
RXF 393 = system: RXF 393
LOX IMVI = system: LOX IMVI
COLO 205 = system: COLO 205
T47D = system: T47D
HCT-15 = system: HCT-15
SNB-75 = system: SNB-75
SF-539 = system: SF-539
HT-29 = system: HT-29
NCI-H226 = system: NCI-H226
K562 = system: K562
U-251 = system: U-251
OVCAR-5 = system: OVCAR-5
UACC-257 = system: UACC-257
OVCAR-3 = system: OVCAR-3
A498 = system: A498
BT-549 = system: BT-549
SK-OV-3 = system: SK-OV-3
SR = system: SR
NCI-H23 = system: NCI-H23
OVCAR-4 = system: OVCAR-4
NCI/ADR-RES = system: NCI/ADR-RES
RPMI-8226 = system: RPMI-8226
SF-268 = system: SF-268
CCRF-CEM = system: CCRF-CEM
SN12C = system: SN12C
NCI-H460 = system: NCI-H460
HOP-92 = system: HOP-92
OVCAR-8 = system: OVCAR-8
NCI-H522 = system: NCI-H522
SW-620 = system: SW-620
MDA-MB-231 = system: MDA-MB-231
MDA-MB-435 = system: MDA-MB-435
ACHN = system: ACHN
PC-3 = system: PC-3
KM12 = system: KM12
UO-31 = system: UO-31
HCC 2998 = system: HCC 2998
MDA-N = system: MDA-N
CAKI-1 = system: CAKI-1
TK-10 = system: TK-10
HOP-62 = system: HOP-62

**Q.** Which results are given for `O[C@H]1[C@H]2[C@H](O)C[C@H](CCOCc3ccccc3)CN2C[C@H]1O`?
**A.** GI50 (SK-MEL-28): > 100 µM (inactive); GI50 (MOLT-4): > 100 µM (inactive); GI50 (HL-60): > 100 µM (inactive); GI50 (A549): > 100 µM (inactive); GI50 (SF-295): > 100 µM (inactive); GI50 (DU-145): > 100 µM (inactive); GI50 (Malme-3M): > 100 µM (inactive); GI50 (HCT-116): > 100 µM (inactive); GI50 (UACC-62): > 100 µM (inactive); GI50 (MCF7): > 100 µM (inactive); GI50 (786-0): > 100 µM (inactive); GI50 (SK-MEL-2): > 100 µM (inactive); GI50 (IGROV-1): > 100 µM (inactive); GI50 (SNB-19): > 100 µM (inactive); GI50 (Hs-578T): > 100 µM (inactive); GI50 (M14): > 100 µM (inactive); GI50 (SK-MEL-5): > 100 µM (inactive); GI50 (EKVX): > 100 µM (inactive); GI50 (RXF 393): > 100 µM (inactive); GI50 (LOX IMVI): > 100 µM (inactive); GI50 (COLO 205): > 100 µM (inactive); GI50 (T47D): > 100 µM (inactive); GI50 (HCT-15): > 100 µM; GI50 (SNB-75): 45.4 µM (inactive); GI50 (SF-539): > 100 µM (inactive); GI50 (HT-29): > 100 µM (inactive); GI50 (NCI-H226): > 100 µM (inactive); GI50 (K562): > 100 µM (inactive); GI50 (U-251): > 100 µM (inactive); GI50 (OVCAR-5): > 100 µM (inactive); GI50 (UACC-257): > 100 µM (inactive); GI50 (OVCAR-3): > 100 µM (inactive); GI50 (A498): > 100 µM (inactive); GI50 (BT-549): > 100 µM (inactive); GI50 (SK-OV-3): > 100 µM (inactive); GI50 (SR): > 100 µM (inactive); GI50 (NCI-H23): > 100 µM (inactive); GI50 (OVCAR-4): > 100 µM (inactive); GI50 (NCI/ADR-RES): > 100 µM (inactive); GI50 (RPMI-8226): > 100 µM (inactive); GI50 (SF-268): > 100 µM (inactive); GI50 (CCRF-CEM): > 100 µM (inactive); GI50 (SN12C): > 100 µM (inactive); GI50 (NCI-H460): > 100 µM (inactive); GI50 (HOP-92): > 100 µM (inactive); GI50 (OVCAR-8): > 100 µM (inactive); GI50 (NCI-H522): > 100 µM (inactive); GI50 (SW-620): > 100 µM (inactive); GI50 (MDA-MB-231): > 100 µM (inactive); GI50 (MDA-MB-435): > 100 µM (inactive); GI50 (ACHN): > 100 µM (inactive); GI50 (PC-3): > 100 µM (inactive); GI50 (KM12): > 100 µM (inactive); GI50 (UO-31): > 100 µM (inactive); GI50 (HCC 2998): > 100 µM (inactive); GI50 (MDA-N): > 100 µM (inactive); GI50 (CAKI-1): > 100 µM (inactive)

**Q.** For `C/C(=N\[N+](C)(C)C)c1ccc(C)c(C)c1`, which GI50 (TK-10) is on record?
**A.** The GI50 was 45.9 µM (inactive).

**Q.** And the GI50 (SK-MEL-28)?
**A.** Its GI50 is > 10 µM (inactive).

**Q.** What about the GI50 (MOLT-4) of the same compound?
**A.** Its GI50 is > 10 µM (inactive).

**Q.** What about the GI50 (HL-60) of the same compound?
**A.** Its GI50 is 82.2 µM (inactive).

**Q.** What about the GI50 (A549) of the same compound?
**A.** Its GI50 is 7.62 µM (inactive).

**Q.** What about the GI50 (SF-295) of the same compound?
**A.** Its GI50 is 83.6 µM (inactive).

**Q.** What about the GI50 (DU-145) of the same compound?
**A.** The GI50 was 64.3 µM (inactive).

**Q.** What about the GI50 (Malme-3M) of the same compound?
**A.** Its GI50 is > 10 µM (inactive).

**Q.** And the GI50 (HCT-116)?
**A.** The GI50 was 76.9 µM (inactive).

**Q.** What about the GI50 (UACC-62) of the same compound?
**A.** Its GI50 is > 100 µM (inactive).

**Q.** What about the GI50 (MCF7) of the same compound?
**A.** The GI50 was > 10 µM (inactive).

**Q.** And the GI50 (786-0)?
**A.** The GI50 was > 10 µM (inactive).

**Q.** What about the GI50 (SK-MEL-2) of the same compound?
**A.** The GI50 was > 100 µM (inactive).

**Q.** What about the GI50 (IGROV-1) of the same compound?
**A.** The GI50 was > 100 µM (inactive).

**Q.** What about the GI50 (SNB-19) of the same compound?
**A.** The GI50 was 42.9 µM (inactive).

**Q.** What about the GI50 (Hs-578T) of the same compound?
**A.** Its GI50 is > 10 µM (inactive).

**Q.** And the GI50 (M14)?
**A.** Its GI50 is > 10 µM (inactive).

**Q.** What about the GI50 (SK-MEL-5) of the same compound?
**A.** Its GI50 is 35.7 µM (inactive).

**Q.** And the GI50 (EKVX)?
**A.** Its GI50 is 7.5 µM (inactive).

**Q.** What about the GI50 (RXF 393) of the same compound?
**A.** The GI50 was 62.8 µM (inactive).

**Q.** And the GI50 (LOX IMVI)?
**A.** The GI50 was > 10 µM (inactive).

**Q.** And the GI50 (COLO 205)?
**A.** Its GI50 is 14.6 µM (inactive).

**Q.** What about the GI50 (T47D) of the same compound?
**A.** The GI50 was > 100 µM (inactive).

**Q.** And the GI50 (HCT-15)?
**A.** Its GI50 is > 10 µM.

**Q.** What about the GI50 (SNB-75) of the same compound?
**A.** Its GI50 is 53.5 µM (inactive).

**Q.** What about the GI50 (SF-539) of the same compound?
**A.** Its GI50 is > 10 µM (inactive).

**Q.** And the GI50 (HT-29)?
**A.** The GI50 was 21.1 µM (inactive).

**Q.** And the GI50 (K562)?
**A.** Its GI50 is 46.1 µM (inactive).

**Q.** What about the GI50 (U-251) of the same compound?
**A.** Its GI50 is 39.4 µM (inactive).

**Q.** What about the GI50 (OVCAR-5) of the same compound?
**A.** The GI50 was 42.4 µM (inactive).

**Q.** And the GI50 (HOP-62)?
**A.** The GI50 was > 10 µM (inactive).

**Q.** What about the GI50 (UACC-257) of the same compound?
**A.** The GI50 was 0.752 µM (active).

**Q.** What about the GI50 (OVCAR-3) of the same compound?
**A.** Its GI50 is 78.2 µM (inactive).

**Q.** What about the GI50 (A498) of the same compound?
**A.** Its GI50 is 22.3 µM (inactive).

**Q.** And the GI50 (BT-549)?
**A.** The GI50 was 58.3 µM (inactive).

**Q.** What about the GI50 (SK-OV-3) of the same compound?
**A.** Its GI50 is 77.6 µM (inactive).

**Q.** And the GI50 (SR)?
**A.** The GI50 was 82.6 µM (inactive).

**Q.** What about the GI50 (NCI-H23) of the same compound?
**A.** The GI50 was 62.5 µM (inactive).

**Q.** And the GI50 (OVCAR-4)?
**A.** Its GI50 is 88.1 µM (inactive).

**Q.** What about the GI50 (NCI/ADR-RES) of the same compound?
**A.** The GI50 was > 10 µM (inactive).

**Q.** And the GI50 (RPMI-8226)?
**A.** Its GI50 is 54 µM (inactive).

**Q.** What about the GI50 (SF-268) of the same compound?
**A.** Its GI50 is > 10 µM (inactive).

**Q.** And the GI50 (CCRF-CEM)?
**A.** The GI50 was 35.4 µM (inactive).

**Q.** And the GI50 (SN12C)?
**A.** Its GI50 is 20.4 µM (inactive).

**Q.** What about the GI50 (NCI-H460) of the same compound?
**A.** The GI50 was 29.4 µM (inactive).

**Q.** And the GI50 (HOP-92)?
**A.** The GI50 was > 10 µM (inactive).

**Q.** And the GI50 (OVCAR-8)?
**A.** The GI50 was 55.1 µM (inactive).

**Q.** What about the GI50 (NCI-H522) of the same compound?
**A.** The GI50 was 49.1 µM (inactive).

**Q.** What about the GI50 (SW-620) of the same compound?
**A.** Its GI50 is 51.3 µM (inactive).

**Q.** What about the GI50 (MDA-MB-231) of the same compound?
**A.** Its GI50 is > 10 µM (inactive).

**Q.** What about the GI50 (MDA-MB-435) of the same compound?
**A.** Its GI50 is 96.4 µM (inactive).

**Q.** What about the GI50 (ACHN) of the same compound?
**A.** Its GI50 is > 10 µM (inactive).

**Q.** And the GI50 (PC-3)?
**A.** Its GI50 is 36.9 µM (inactive).

**Q.** What about the GI50 (KM12) of the same compound?
**A.** The GI50 was 24.9 µM (inactive).

**Q.** What about the GI50 (UO-31) of the same compound?
**A.** The GI50 was 77.4 µM (inactive).

**Q.** What about the GI50 (HCC 2998) of the same compound?
**A.** The GI50 was > 10 µM (inactive).

**Q.** And the GI50 (MDA-N)?
**A.** The GI50 was 45.8 µM (inactive).

**Q.** And the GI50 (CAKI-1)?
**A.** The GI50 was > 10 µM (inactive).
